# Experimental data reported in US20150337349A1, “Microbiome Modulation Index” (SECOND GENOME, INC., priority 2013, published 2015).
# Counter-ions that a name gives are not always drawn.
# Tested on: fecal microbial communities (OTUs)
# Test: Microbiome Modulation Index (MMI) from 16S rRNA V4 profiling of fecal samples before and after agent administration
# Format: in vivo, c57bl/6 mice
# Details: oral gavage daily for 5 consecutive days at Table 1 mouse dose; day 0 vs day 5 fecal samples; MMI = d/d0 relative to control mice; variability weight gi applied
# Procedure: Twenty five agents were selected to span multiple indications (Table 1). For each agent, the effective dose for the mouse was determined through a comprehensive search of the literature (Table 1). Working formulations were created by suspending agents in 1× phosphate buffered saline (PBS).
# A total of 156 six-week old c57bl/6 mice (78 males and 78 females) were housed in separate cages 5 days prior to agent administration. Animals were handled daily by caretakers during this acclimation period. Animals were fed a standard chow diet throughout the course of the study.
# Animals were treated with agents via oral gavage daily for 5 consecutive days beginning on day 1. N=6 mice per agent; 3 male+3 female. Fecal samples were collected using the ‘clean catch’ method in which the mice were held by the tail, causing them to defecate. Feces were collected in a sterile tube and immediately frozen and stored at −80° C. Fecal samples were collected in the morning prior to agent administration on the following days: −1,0,4,5.
# Frozen day 0 and day 5 fecal specimens corresponding to 15 treatment groups (PBS+(Table 3) were profiled using Second Genome's Microbiome Signature Discovery™ service (San Bruno, Calif.). DNA was isolated using the PowerSoil DNA Isolation Kit following the manufacturer's instructions (MoBio Laboratories, Carlsbad, Calif.). For V4 sequencing assay profiling, the V4 region of the 16S rRNA genes was amplified using fusion primers tailed with Illumina sequencing adapters and indexing barcodes according to a previously described technique (Caporaso, 2010, PMID: 20534432). For each sample, amplified products were concentrated, purified and quantified by electrophoresis using an Agilent 2100 Bioanalyzer, then pooled for sequencing using the MiSeq (Illumina, San Diego, Calif.) instrument.
# Using the software QIIME (Kuczynski, 2012, PMID: 23184592) and custom scripts, sequences were quality filtered and de-multiplexed using exact matches to the supplied DNA barcodes. Resulting sequences were then clustered into reference OTUs (rOTUs) by uclust (Edgar, 2010, PMID: 20709691) matching each sequence against the Greengenes sequences pre-clustered at 97%, a practice commonly referred to as “closed-reference OTU picking”. The longest Illumina-generated sequence from each of OTUs thus formed was then used as the OTU representative sequence, and assigned taxonomic classification via mothur's bayesian classifier (Schloss, 2009, PMID: 19801464) trained against the Greengenes database. Taxonomic annotations at 80% bootstrapped confidence were applied. Total sequence counts per fecal sample were scaled to be identical. Seven samples (MDO5M027D0, MD10M057D0, Md12F07D0, MD01F006D5, MD06F035D5, MD13M074D5, and MD04F023D5) were excluded following sequence quality filtering and alignment due to low sequence yield. Taxa were filtered to those present in at least one of the samples.
# MMIs were calculated for the PBS control and 14 of the tested drugs. To calculate the MMI of an agent, an intermediate value d was calculated for each mouse administered with the respective agent. The abundance of each OTU before treatment in that mouse was compared to the abundance of that OTU after treatment as in exemplary Equation 11: […]
# where A1i represents the abundance of OTU i at time-point 1 (post-administration), where A0i represents the abundance of OTU i at time-point 0 (pre-administration) gi represents a variability weight applied to each OTU, discussed below.
# Once d was calculated for each mouse, d values for each administered mouse are averaged, and the resulting d was compared to a reference level of change d0 in a control group of mice not administered the agent. The value d0 is determined on the basis of laboratory studies of untreated mice in similar conditions (e.g., a similar number of samples to the number of samples obtained from treated mice).
# The MMI is then calculated as in exemplary Equation 12: […]
row,Compound,MMI
1,NCCCC(O)(P(=O)(O)O)P(=O)(O)O [Alendronate_sodium_trihydrate],1.107
2,CC1(C)S[C@@H]2[C@H](NC(=O)[C@H](N)c3ccc(O)cc3)C(=O)N2[C@H]1C(=O)O [Amoxycillin],2.397
3,Cc1ccc(-c2nc3ccc(C)cn3c2CC(=O)N(C)C)cc1 [Zolpidem_tartrate],1.443
4,CC(C)c1c(C(=O)Nc2ccccc2)c(-c2ccccc2)c(-c2ccc(F)cc2)n1CC[C@@H](O)C[C@@H](O)CC(=O)O [Atorvastatin_calcium_salt_trihydrate],1.278
5,COc1ccc2[n-]c([S@@+]([O-])Cc3ncc(C)c(OC)c3C)nc2c1.COc1ccc2[n-]c([S@@+]([O-])Cc3ncc(C)c(OC)c3C)nc2c1.[Mg+2] [Esomeprazole_magnesium_hydrate],1.1
6,CNCCC(Oc1ccc(C(F)(F)F)cc1)c1ccccc1 (centres unmarked) [Fluoxetine_hydrochloride],1.44
7,CN(C)CCOC(c1ccccc1)c1ccccc1 [Diphenhydramine_hydrochloride],1.202
8,OC(Cn1cncn1)(Cn1cncn1)c1ccc(F)cc1F [Fluconazole],1.003
9,C[C@]12C=CC(=O)C=C1CC[C@@H]1[C@@H]2[C@@H](O)C[C@@]2(C)[C@H]1CC[C@]2(O)C(=O)COC(=O)CCC(=O)[O-].[Na+] [Prednisalone_21-hemisuccinate_sodium_salt],1.262
10,CC(=O)Oc1ccccc1C(=O)O [Acetylsiacylic_acid],1.093
11,CN(C)C(=N)N=C(N)N [Metformin_hydrochloride],1.628
12,Nc1ccc(O)c(C(=O)O)c1 [Mesalamine],1.131
13,CCN(CC)CCOC(=O)C1(C2CCCCC2)CCCCC1 [Dicyloamine_hydrochloride],1.222
14,CC[C@H]1OC(=O)[C@H](C)[C@@H](O[C@H]2C[C@@](C)(OC)[C@@H](O)[C@H](C)O2)[C@H](C)[C@@H](O[C@@H]2O[C@H](C)C[C@H](N(C)C)[C@H]2O)[C@](C)(O)C[C@@H](C)CN(C)[C@H](C)[C@@H](O)[C@]1(C)O [Azithromycin],2.202
